Test results: ChEMBL document CHEMBL1649242, “Molecular epidemiology of CTX-M-producing Escherichia coli isolates at a tertiary medical center in western Pennsylvania” (Antimicrob Agents Chemother, 2009)
Calls of active or inactive are those of the source. The calls are words filed in the database; no cut-off is given here.

How the values were obtained:
Assay type in all cases: functional, organism-based
Escherichia coli [1] = experiment: Antimicrobial activity against TEM-10 ESBL producing Escherichia coli clinical isolate by CLSI disk diffusion assay
Escherichia coli [2] = experiment: Antimicrobial activity against CTX-M ESBL producing Escherichia coli clinical isolate by CLSI disk diffusion assay
Escherichia coli [3] = experiment: Antimicrobial activity against CTX-M-15 ESBL producing Escherichia coli clinical isolate by CLSI disk diffusion assay
Escherichia coli [4] = experiment: Antimicrobial activity against SHV-5 ESBL producing Escherichia coli clinical isolate by CLSI disk diffusion assay
Escherichia coli [5] = experiment: Antimicrobial activity against SHV-7 ESBL producing Escherichia coli clinical isolate by CLSI disk diffusion assay

## CO/N=C(\C(=O)N[C@@H]1C(=O)N2C(C(=O)O)=C(COC(C)=O)CS[C@H]12)c1csc(N)n1
Escherichia coli [1]
  Activity: Active

## CC(C)(O/N=C(\C(=O)N[C@@H]1C(=O)N2C(C(=O)[O-])=C(C[n+]3ccccc3)CS[C@H]12)c1csc(N)n1)C(=O)O
Escherichia coli [2]
  Activity: inactive
Escherichia coli [3]
  Activity: inactive
Escherichia coli [4]
  Activity: inactive
Escherichia coli [5]
  Activity: inactive
Escherichia coli [1]
  Activity: inactive
